Values belong to the compound of their own block, whether it stands above or below them.
What was measured:
[1] = Mouse PK study (IV and PO) in female C57B16/N; type: in vivo; conditions: for Tmax: iv
Protocol: Doses were freshly prepared on the day of dosing. Vehicle compositions of each dose are listed below. For IV, an appropriate amount of the test article was dissolved in the vehicle with vortexing and/or sonication to achieve a solution with the intended concentration level. For PO, an appropriate amount of the test article was dissolved in the appropriate vehicle; vortex and/or sonication can be used to achieve a solution formulation with the intended concentration level. • IV: 0.5% Tween 80 in saline • PO: 0.2% Tween 80/10% PEG-300 in water. Adjust pH with IN hydrochloric acid to obtain a clear solution
(§1) After dosing, 0.03 mL blood samples were collected from the dorsal metatarsal vein (0.2 mL at final time point via heart puncture) at the following time points: • IV: pre-dose, 0.0833, 0.25, 0.5, 1, 2, 4, 6, 8, 24 hours post dose • PO: pre-dose, 0.25, 0.5, 1, 2, 4, 6, 8, 24 hours post dose
(§2) Blood from each sample was transferred into plastic micro centrifuge tubes with EDTAK2 as an anticoagulant. The blood samples were centrifuged at 4,000 g for 5 minutes at 4° C. to obtain plasma. Samples were immediately frozen in the upright position and stored at −75±15° C. prior to analysis.
Samples were analyzed on a AB Sciex Triple Quad 5500 LC/MS/MS instrument using a Gemini 5 μm C18 110A 150×3 mm column (XBridge BEH C18 2.5 μm 4.6×75 mm in the case of JBSNF-000265) with the following equipment installed.
The mobile phase A was 0.1% formic acid in water, and the mobile phase B was 95% acetonitrile in water (0.1% formic acid), delivered at 0.4 mL/min.
Sample Preparation: The desired serial concentrations of working solutions were achieved by diluting stock solution of analyte with 50% acetonitrile in water solution. 5 μL of working solutions (1, 2, 3, 5, 10, 50, 100, 500, 1000 ng/ml) were added to 5 μL of the blank C57B16/N mouse plasma to achieve calibration standards of 1˜1000 ng/ml (1, 2, 3, 5, 10, 50, 100, 500, 1000 ng/ml) in a total volume of 10 μL. Four quality control samples at 3 ng/mL, 5 ng/mL, 100 ng/mL, and 800 ng/mL for plasma were prepared independently of those used for the calibration curves. These QC samples were prepared on the day of analysis in the same way as calibration standards.
(§3) 10 μL of standards, 10 μL of QC samples and 10 μL of unknown samples (5 μL of plasma with 5 μL of blank solution) were added to 100 μL of acetonitrile (containing D4-1-MNA 50 ng/mL) for precipitating protein respectively. Then the samples were vortexed for 30 s. After centrifugation at 4 degree Celsius, 4,000 rpm for 15 min, the supernatant was diluted 3 times with water. 10 μL of diluted supernatant (20 μL in the case of JBSNF-000265) was injected into the LC/MS/MS system for quantitative analysis.

[2] = in vitro
Protocol: A master solution was prepared according to the following table.
40 μL of 10 mM NADPH solution was added to each well. The final concentrations of NADPH was 1 mM. The mixture was pre-warmed at 37° C. for 5 minutes. The negative control samples were prepared by replacing NADPH solutions with 40 μL of ultra-pure H2O. The negative control was used to exclude the misleading factor that resulted from instability of chemical itself. Samples with NADPH were prepared in duplicate. Negative controls were prepared in singlet.
The reaction was started with the addition of 4 μL of 200 uM control compound or test compound solutions. […] The reaction was stopped by the addition of 4 volumes of cold acetonitrile with IS (100 nM alprazolam, 200 nM imipramine, 200 nM labetalol and 2 uM ketoprofen). Samples were centrifuged at 3, 220 g for 40 minutes. Aliquot of 90 μL of the supernatant was mixed with 90 μL of ultra-pure H2O and then used for LC-MS/MS analysis.
For metabolite standard samples: 1 μL of 400 uM working solution was added to 89 μL master solution following by adding 400 μL of cold acetonitrile with internal standard (IS) (100 nM alprazolam, 200 nM Imipramine, 200 nM labetalol and 2 uM ketoprofen). Then 10 μL of 10 mM NADPH solution or ultra-pure H2O was added to the mixture. Samples were centrifuged at 3,220 g for 40 minutes to precipitate protein. Aliquots of 90 μL supernatant diluted by 90 μL of water was used for LC-MS/MS analysis.

[3] = system: 1-MNA; assay: 1-MNA plasma PK parameters in mouse after dosing with compound; type: in vivo; conditions: plasma 1-MNA, female C57B16/N
Protocol: as §1, §2
Sample Preparation: 1-Methylnicotinamide (1-MNA): The desired serial concentrations of working solutions were achieved by diluting stock solution of analyte with 50% acetonitrile in water solution. 5 μL of working solutions (1, 2, 3, 5, 10, 50, 100, 500, 1000 ng/mL) were added to 5 μL of water to achieve calibration standards of 1˜1000 ng/ml (1, 2, 3, 5, 10, 50, 100, 500, 1000 ng/ml) in a total volume of 10 μL. Four quality control samples at 3 ng/ml, 5 ng/mL, 100 ng/mL, and 800 ng/ml for water were prepared independently of those used for the calibration curves. These QC samples were prepared on the day of analysis in the same way as calibration standards.
as §3, with “D4-1-MNA 100” for “D4-1-MNA 50”, “Celsius, 4000” for “Celsius, 4,000”, “water. 5” for “water. 10”, “supernatant” for “supernatant (20 μL in the case of JBSNF-000265)”

[4] = biological target: T1, recombinant human NNMT (Homo sapiens, UniProt P40261); assay: In vitro NNMT enzyme inhibition assay (Promega MTase-Glo Methyltransferase Assay); type: biochemical; conditions: compared with compound 1
T1 sequence (P40261 1-264): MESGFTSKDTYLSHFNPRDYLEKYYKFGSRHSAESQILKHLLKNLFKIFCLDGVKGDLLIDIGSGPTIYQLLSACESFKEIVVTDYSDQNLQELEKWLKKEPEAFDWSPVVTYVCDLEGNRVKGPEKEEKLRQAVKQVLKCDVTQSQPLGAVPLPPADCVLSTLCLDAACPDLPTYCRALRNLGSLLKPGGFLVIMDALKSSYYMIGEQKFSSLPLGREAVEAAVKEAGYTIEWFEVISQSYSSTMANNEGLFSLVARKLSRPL
Protocol: NNMT biochemical activity for was evaluated for compound 1 (FIG. 1), compound 2 (FIG. 2), compound 6 (FIG. 3), compound 8 (FIG. 4), compound 14 (FIG. 5), compound 16 (FIG. 6), and compound 13 (FIG. 12), using the Promega Mtase-Glo Methyltransferase Assay kit. Compounsd 4A (FIG. 7) and 4B (FIG. 8) were also tested in the assay.
Assays were performed in a white, flat-bottomed 96 well plate. […] Reactions were performed for 20 minutes at room temperature. MTase-Glo reagent and MTase-Glo detection solution were added according to manufacturer's instructions and luminescence signal measured with a SpectraMax i3 plate reader and data analyzed with GraphPad Prism version 9. Scheme 10 depicts a visual summary of the Promega MTase-Glo Methyltransferase assay used to assess biochemical activity of novel inhibitors.

[5] = mouse, plasma, 1 mg/kg (Table 5B, title: IV Dosage)
[6] = mouse, plasma, 10 mg/kg (Table 5B, title: IV Dosage)
[7] = mouse, plasma, 50 mg/kg (Table 5B, title: IV Dosage)

AUC% Extrap—obs ([1]; 3 mg/kg IV): 0.666% | AUClast/D ([1]; 3 mg/kg IV): 97 ng·h/mL per mg/kg | Cl_obs ([1]; 3 mg/kg IV): 173 mL/min/kg | F ([1]; 10 mg/kg): 10.3% | F ([1]; 50 mg/kg): 32.4% | AUC(0-t) [1, 5]: 97 ng·h/mL | Cmax [1, 5]: 3.66 ng/mL | half-life [1, 5]: 255 min | AUC(0-inf) ([1]; mouse, plasma, 3 mg/kg IV): 292 ng·h/mL | AUC(0-t) ([1]; mouse, plasma, 3 mg/kg IV): 290 ng·h/mL | C0 ([1]; mouse, plasma, 3 mg/kg IV): 864 ng/mL | half-life ([1]; mouse, plasma, 3 mg/kg IV): 25.5 min | MRT inf ([1]; mouse, plasma, 3 mg/kg IV, read-out: MRTInf—obs): 20.8 min | AUC(0-t) [1, 6]: 96.4 ng·h/mL | Cmax [1, 6]: 145 ng/mL | half-life [1, 6]: 143 min | AUC(0-t) [1, 7]: 1540 ng·h/mL | Cmax [1, 7]: 1350 ng/mL | half-life [1, 7]: 473 min | Tmax ([1]; mouse, plasma, 10 mg/kg): 15 min | Tmax ([1]; mouse, plasma, 50 mg/kg): 20 min | Predicted hepatic CL ([2]; human, 2 uM): <5.12 mL/min/kg | CLint scaled at 2 uM ([2]; human, microsomes): < 6.79 mL/min/kg | half-life at 2 uM ([2]; human, microsomes): > 256 min | microsomal CLint at 2 uM ([2]; human, microsomes): < 5.42 µL/min/mg | Remaining (%) at 60 minutes ([2]; human, microsomes, 1 h, 2 uM): 86.23% | % Q (mice): percent of compound remaining after 60 minutes of exposure to liver microsomes ([2]; male, C57B16/N, mouse, microsomes, 1 h, 2 uM): 46.35% | Predicted hepatic CL ([2]; male, mouse, 2 uM): 50.12 mL/min/kg | CLint scaled at 2 uM ([2]; male, mouse, microsomes): 113 mL/min/kg | half-life at 2 uM ([2]; male, mouse, microsomes): 53.6 min | microsomal CLint at 2 uM ([2]; male, mouse, microsomes): 25.9 µL/min/mg | Remaining (%) at 60 minutes ([2]; male, mouse, microsomes, 1 h, 2 uM): 46.35% | % Q (human): percent of compound remaining after 60 minutes of exposure to liver microsomes ([2]; microsomes, 1 h, 2 uM): 86.23%
SMILES: CNc1cc2ccnc(N)c2cn1 [Compound 1]
AUClast of 1-MNA ([3]; 3 mg/kg IV): 1463 ng·h/mL | AUClast of 1-MNA ([3]; 10 mg/kg PO): 934 ng·h/mL | AUClast of 1-MNA ([3]; 50 mg/kg PO): 814 ng·h/mL

activity in the enzyme assay (in words) [4]: substrate (not inhibitor)
SMILES: CNc1cc2cc[nH]c(=O)c2cn1

activity in the enzyme assay (in words) [4]: significantly less active
SMILES: CNc1cc2ccncc2cn1
